Data: patent US8846710B2, “Method of preferentially inducing the biosynthesis of interferon” (3M Innovative Properties Company, priority 2005, dated 2014)

What was measured:
interferon (α) (IFN-α) = assay: Cytokine induction in human cells: IFN-α secreted by PBMC into culture media (ELISA); type: cell-based; details: for Maximal Response (pg/mL) IFN: maximal response in dose response curve, median; for Maximal Response IFN / Minimum Effective Concentration IFN / minimal effective concentration: human PBMC; for Maximal Response IFN / Minimum Effective Concentration IFN: median where tested in more than one experiment; for minimal effective concentration: lowest tested concentration inducing IFN-α over usually 20 pg/mL, median where more than one experiment, read-out: Minimum Effective Concentration (μM) IFN
From the text: (§1) Cytokine Induction in Human Cells
(§2) An in vitro human blood cell system is used to assess cytokine induction. Activity is based on the measurement of interferon (α) and tumor necrosis factor (α) (IFN-α and TNF-α, respectively) secreted into culture media as described by Testerman et. al. in “Cytokine Induction by the Immunomodulators Imiquimod and S-27609”, Journal of Leukocyte Biology, 58, 365-372 (September, 1995).
(§3) Blood Cell Preparation for Culture
(§4) Whole blood from healthy human donors is collected by venipuncture into vacutainer tubes or syringes containing EDTA. Peripheral blood mononuclear cells (PBMC) are separated from whole blood by density gradient centrifugation using HISTOPAQUE-1077 (Sigma, St. Louis, Mo.) or Ficoll-Paque Plus (Amersham Biosciences Piscataway, N.J.). Blood is diluted 1:1 with Dulbecco's Phosphate Buffered Saline (DPBS) or Hank's Balanced Salts Solution (HBSS). Alternately, whole blood is placed in Accuspin (Sigma) or LeucoSep (Oreiner Bio-One, Inc., Longwood, Fla.) centrifuge frit tubes containing density gradient medium. The PBMC layer is collected and washed twice with DPBS or HBSS and re-suspended at 4×10^6 cells/mL in RPMI complete. The PBMC suspension is added to 96 well flat bottom sterile tissue culture plates containing an equal volume of RPMI complete media containing test compound.
(§5) The compounds are solubilized in dimethyl sulfoxide (DMSO). The DMSO concentration should not exceed a final concentration of 1% for addition to the culture wells. The compounds are generally tested at concentrations ranging from 30-0.014 μM. Controls include cell samples with media only, cell samples with DMSO only (no compound), and cell samples with reference compound.
(§6) The solution of test compound is added at 60 μM to the first well containing RPMI complete and serial 3 fold dilutions are made in the wells. The PBMC suspension is then added to the wells in an equal volume, bringing the test compound concentrations to the desired range (usually 30-0.014 μM). The final concentration of PBMC suspension is 2×10^6 cells/mL. The plates are covered with sterile plastic lids, mixed gently and then incubated for 18 to 24 hours at 37° C. in a 5% carbon dioxide atmosphere.
(§7) Following incubation the plates are centrifuged for 10 minutes at 1000 rpm (approximately 200×g) at 4° C. The cell-free culture supernatant is removed and transferred to sterile polypropylene tubes. Samples are maintained at −30 to −70° C. until analysis. The samples are analyzed for IFN-α by ELISA and for TNF-α by IGEN/BioVeris Assay.
(§8) Interferon (α) and Tumor Necrosis Factor (α) Analysis
IFN-α concentration is determined with a human multi-subtype calorimetric sandwich ELISA (Catalog Number 41105) from PBL Biomedical Laboratories, Piscataway, N.J. Results are expressed in pg/mL.
(§9) In total, the data output of the assay consists of concentration values of TNF-α and IFN-α (y-axis) as a function of compound concentration (x-axis).
Analysis of the data has two steps. First, the greater of the mean DMSO (DMSO control wells) or the experimental background (usually 20 pg/mL for IFN-α and 40 pg/mL for TNF-α) is subtracted from each reading. If any negative values result from background subtraction, the reading is reported as “*”, and is noted as not reliably detectable. In subsequent calculations and statistics, “*”, is treated as a zero. Second, all background subtracted values are multiplied by a single adjustment ratio to decrease experiment to experiment variability. The adjustment ratio is the area of the reference compound in the new experiment divided by the expected area of the reference compound based on the past 61 experiments (unadjusted readings). […] The reference compound used is 2-[4-amino-2-ethoxymethyl-6,7,8,9-tetrahydro-α,α-dimethyl-1H-imidazo[4,5-c]quinolin-1-yl]ethanol hydrate (U.S. Pat. No. 5,352,784; Example 91) and the expected area is the sum of the median dose values from the past 61 experiments. […]

[1] = tested on: tumor necrosis factor (α) (TNF-α); assay: Cytokine induction in human cells: TNF-α secreted by PBMC into culture media (ORIGEN M-Series immunoassay); type: cell-based; set-up: key to Maximal Response (pg/mL) TNF / Maximal Response TNF: If any negative values result from background subtraction, the reading is reported as “*”, and is noted as not reliably detectable; details: for Maximal Response (pg/mL) TNF: maximal response in dose response curve; for Maximal Response (pg/mL) TNF / Maximal Response TNF: median; for Maximal Response TNF / Minimum Effective Concentration TNF / minimal effective concentration: human PBMC; for Minimum Effective Concentration TNF: median where tested in more than one experiment; for minimal effective concentration: lowest tested concentration inducing TNF-α over usually 40 pg/mL, median where more than one experiment, read-out: Minimum Effective Concentration (μM) TNF
From the text: as §1, §2, §3, §4, §5, §6, §7, §8
The TNF-α concentration is determined by ORIGEN M-Series Immunoassay and read on an IGEN M-8 analyzer from BioVeris Corporation, formerly known as IGEN International, Gaithersburg, Md. The immunoassay uses a human TNF-α capture and detection antibody pair (Catalog Numbers AHC3419 and AHC3712) from Biosource International, Camarillo, Calif. Results are expressed in pg/mL.
as §9
Analysis of the data has two steps. First, the greater of the mean DMSO (DMSO control wells) or the experimental background (usually 20 pg/mL for IFN-α and 40 pg/mL for TNF-α) is subtracted from each reading. If any negative values result from background subtraction, the reading is reported as “*”, and is noted as not reliably detectable. In subsequent calculations and statistics, “*”, is treated as a zero. Second, all background subtracted values are multiplied by a single adjustment ratio to decrease experiment to experiment variability. The adjustment ratio is the area of the reference compound in the new experiment divided by the expected area of the reference compound based on the past 61 experiments (unadjusted readings). […]

[2] = Table 7, background-subtracted, reference-adjusted
[3] = Table 11, * = TNF below experimental background of 40 pg/mL
[4] = Table 12, * = below the experimental background of 40 pg/mL
[5] = Table 10, * = below experimental background level

Structure (SMILES)	Maximal Response IFN (interferon (α) (IFN-α); Table 11)	Maximal Response TNF [1, 3]	Minimum Effective Concentration IFN (interferon (α) (IFN-α); Table 11)	Minimum Effective Concentration TNF ([1]; Table 11)	further results
CC(C)(Cn1c(CO)nc2c(N)nc3ccccc3c21)NS(C)(=O)=O [Example 7, N-[2-(4-Amino-2-hydroxymethyl-1H-imidazo[4,5-c]quinolin-1-yl)-1,1-dimethylethyl]methanesulfonamide]	1670 pg/mL	154 pg/mL	–	–	Maximal Response (pg/mL) IFN (interferon (α) (IFN-α); [2]): 2250 pg/mL; Maximal Response (pg/mL) TNF [1, 2]: 121 pg/mL
Cc1nc2c(N)nc3ccccc3c2n1CCCN [Analog 84]	421 pg/mL	*	3.33 µM	>30 µM	–
CC(C)(F)Cn1c(CCO)nc2c(N)nc3cccnc3c21 [Example 552, 2-[4-Amino-1-(2-fluoro-2-methylpropyl)-1H-imidazo[4,5-c][1,5]naphthyridin-2-yl]ethanol]	–	–	–	–	Maximal Response IFN (interferon (α) (IFN-α); Table 12): 1646 pg/mL; Maximal Response TNF [1, 4]: 84 pg/mL
Cc1nc2c(N)nc3ccccc3c2n1CCCCNS(C)(=O)=O [Analog 48]	7293 pg/mL	526 pg/mL	0.12 µM	10 µM	–
COCOCc1nc2c(N)nc3ccccc3c2n1CC(C)(C)CNC(=O)c1ccccc1 [Analog 95]	832 pg/mL	1820 pg/mL	0.04 µM	0.37 µM	–
CCc1nc2c(N)nc3cc(-c4cccnc4)ccc3c2n1CC1CCN(C(=O)C(C)C)CC1 [Analog 19]	–	–	–	–	minimal effective concentration (interferon (α) (IFN-α); Table 10): 0.12 µM; Maximal Response (pg/mL) IFN (interferon (α) (IFN-α); [5]): 1686 pg/mL; minimal effective concentration ([1]; Table 10): 1.11 µM; Maximal Response (pg/mL) TNF [1, 5]: 619 pg/mL
CCOCc1nc2c(N)nc3ccccc3c2n1CCCCNC(=O)N1CCOCC1 [Analog 56]	3433 pg/mL	1580 pg/mL	0.12 µM	1.11 µM	–
COCCc1nc2c(N)nc3cc(-c4cccnc4)ccc3c2n1CCCN1CCCC1=O [Analog 39]	–	–	–	–	minimal effective concentration (interferon (α) (IFN-α); Table 10): 0.12 µM; Maximal Response (pg/mL) IFN (interferon (α) (IFN-α); [5]): 753 pg/mL; minimal effective concentration ([1]; Table 10): 1.11 µM; Maximal Response (pg/mL) TNF [1, 5]: 380 pg/mL
CS(=O)(=O)NCCCCn1c(CCO)nc2c(N)nc3cccnc3c21 [Example 145, N-{4-{4-Amino-2-(2-hydroxyethyl)-1H-imidazo[4,5-c][1,5]naphthyridin-1-yl]butyl}methanesulfonamide]	–	–	–	–	Maximal Response IFN (interferon (α) (IFN-α); Table 12): 3008 pg/mL; Maximal Response TNF [1, 4]: 7 pg/mL
CC(C)(O)Cn1c(CO)nc2c(N)nc3cc(-c4cccc(O)c4)ccc3c21 [Example 168]	–	–	–	–	minimal effective concentration (interferon (α) (IFN-α); Table 10): 0.37 µM; minimal effective concentration ([1]; Table 10): 10 µM
CCCc1nc2c(N)nc3cc(-c4cncc(CO)c4)ccc3c2n1CC(C)(C)O [Analog 17]	–	–	–	–	minimal effective concentration (interferon (α) (IFN-α); Table 10): 0.014 µM; Maximal Response (pg/mL) IFN (interferon (α) (IFN-α); [5]): 1079 pg/mL; minimal effective concentration ([1]; Table 10): 0.12 µM; Maximal Response (pg/mL) TNF [1, 5]: 16482 pg/mL
CC(C)(Cn1c(CO)nc2c(N)nc3ccccc3c21)CS(C)(=O)=O [Example 364, {4-Amino-1-[2,2-dimethyl-3-(methylsulfonyl)propyl]-1H-imidazo[4,5-c]quinolin-2-yl}methanol]	5343 pg/mL	164 pg/mL	–	–	–
COCCc1nc2c(N)nc3ccccc3c2n1CCCNS(C)(=O)=O [Analog 62]	3995 pg/mL	954 pg/mL	0.014 µM	1.11 µM	–
CN(CCOCCn1c(CCO)nc2c(N)nc3ccccc3c21)C(=O)C1CCCCC1 [Example 135]	2464 pg/mL	146 pg/mL	3.33 µM	30 µM	–
CC(C)(O)Cn1c(CCO)nc2c(N)nc3cc(-c4ccccc4)ccc3c21 [Example 157]	–	–	–	–	minimal effective concentration (interferon (α) (IFN-α); Table 10): 0.37 µM; Maximal Response (pg/mL) TNF [1, 5]: 67 pg/mL
COCCc1nc2c(N)nc3cc(-c4cncc(CO)c4)ccc3c2n1CC(C)(C)O [Analog 16]	–	–	–	–	minimal effective concentration (interferon (α) (IFN-α); Table 10): 0.014 µM; Maximal Response (pg/mL) IFN (interferon (α) (IFN-α); [5]): 5868 pg/mL; minimal effective concentration ([1]; Table 10): 0.04 µM; Maximal Response (pg/mL) TNF [1, 5]: 16296 pg/mL
Nc1nc2ccccc2c2c1nc(CCO)n2CCCNC(=O)c1ccccc1 [Example 132]	8361 pg/mL	*	0.37 µM	>30 µM	–
COCCc1nc2c(N)nc3ccccc3c2n1CC(C)(C)CNS(C)(=O)=O [Analog 67]	1805 pg/mL	5467 pg/mL	0.014 µM	0.04 µM	–
CCCc1nc2c(N)nc3ccccc3c2n1CCOCCN(C)S(C)(=O)=O [Analog 79]	1055 pg/mL	1312 pg/mL	0.37 µM	3.33 µM	–
COCCc1nc2c(N)nc3ccccc3c2n1CCCCNC(=O)c1cnc2ccccc2n1 [Analog 116]	1129 pg/mL	7261 pg/mL	0.014 µM	0.04 µM	–
Cc1nc2c(N)nc3ccccc3c2n1CCCNS(C)(=O)=O [Aanalog 58]	2778 pg/mL	*	1.11 µM	30 µM	–
Cc1nc2c(N)nc3cccnc3c2n1CC(C)(C)O [Analog 126, 1-(4-amino-2-methyl-1H-imidazo[4,5-c][1,5]naphthyridin-1-yl)-2-methylpropan-2-ol]	–	–	–	–	Maximal Response IFN (interferon (α) (IFN-α); Table 12): 1952 pg/mL; Maximal Response TNF [1, 4]: 6519 pg/mL
COCCc1nc2c(N)nc3ccccc3c2n1CC(C)(C)CNC(=O)c1ccccc1 [Analog 96]	2133 pg/mL	1812 pg/mL	0.014 µM	0.014 µM	–
